According to patent publication US12485179B2, “Cholecystokinin B receptor targeting for imaging and therapy” (Purdue Research Foundation, priority 2012, dated 2025):

Key:
CCK2R = biological target: T1, CCK2R (Homo sapiens, UniProt P32239); experiment: Binding of 99mTc conjugates to HEK-293 CCK2R cells (cell bound radioactivity); parameters: expressed in transfected cells; host or cells: HEK-293, G418-selected, from Dr. Mark Hellmich (University of Texas at Galveston)
T1 sequence (P32239 1-447): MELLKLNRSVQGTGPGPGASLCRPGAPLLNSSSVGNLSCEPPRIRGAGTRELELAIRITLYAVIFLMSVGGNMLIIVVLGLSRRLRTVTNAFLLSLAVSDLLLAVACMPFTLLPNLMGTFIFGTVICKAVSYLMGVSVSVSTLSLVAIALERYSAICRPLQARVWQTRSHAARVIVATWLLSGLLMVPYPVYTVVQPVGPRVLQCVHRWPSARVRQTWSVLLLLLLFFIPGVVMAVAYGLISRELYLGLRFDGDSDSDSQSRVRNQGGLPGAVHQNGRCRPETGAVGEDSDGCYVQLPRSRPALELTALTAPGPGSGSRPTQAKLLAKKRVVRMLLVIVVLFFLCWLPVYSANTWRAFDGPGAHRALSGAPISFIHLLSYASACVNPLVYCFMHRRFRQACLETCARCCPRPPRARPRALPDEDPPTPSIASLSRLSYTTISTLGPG
Experimental: (§1) CRL-1, CRL-2, CRL-3 and CRL-4 were chelated to ^99mTc and tested for binding using two transfected cell lines of HEK-CCK2R (HEK-293 CCK2R) and HEK-CCK2R splice cell line (HEK CCK2i4svR), obtained from Dr. Mark Hellmich (University of Texas at Galveston). Cells were cultured in Dulbecco's modified Eagles (Gibco) supplemented with 10% Fetal Bovine Serum and G418 disulfate (SIGMA; 400 μg/ml), 1% penicillin/streptomycin at 37° C. in a humidified 95% air, 5% CO2 atmosphere.
(§2) Competition studies were performed using 100 fold excess of free Z-360 containing corresponding peptide linker and no chelating moiety. HEK 293 CCK2R and HEK CCK2i4svR were seeded onto 24 well plates and allowed to become confluent over 48-72 hours. Spent medium in each well was replaced with 0.5 ml fresh media containing 0.5% BSA and increasing concentrations of the test article. After incubating for 1 h at 37° C. cells were rinsed with incubation solution (2×1.0 ml) to remove any unbound radioactivity. Cells were then resuspended on 0.5 ml 0.25N NaOH and cell radioactivity was counted using a γ-counter. The dissociation constant (KD) was calculated using a plot of cell bound radioactivity versus the concentration of the radiotracer using Graphpad Prism 4 and assuming a non-cooperative single site binding equilibrium.

CCK2i4svR = biological target: T2, CCK2i4svR (Homo sapiens, UniProt P32239); experiment: Binding of 99mTc conjugates to HEK CCK2i4svR cells (cell bound radioactivity)
T2 construct: expressed in transfected cells; host or cells: HEK-293, G418-selected, from Dr. Mark Hellmich (University of Texas at Galveston)
T2 sequence (P32239 1-516 isoform P32239-2): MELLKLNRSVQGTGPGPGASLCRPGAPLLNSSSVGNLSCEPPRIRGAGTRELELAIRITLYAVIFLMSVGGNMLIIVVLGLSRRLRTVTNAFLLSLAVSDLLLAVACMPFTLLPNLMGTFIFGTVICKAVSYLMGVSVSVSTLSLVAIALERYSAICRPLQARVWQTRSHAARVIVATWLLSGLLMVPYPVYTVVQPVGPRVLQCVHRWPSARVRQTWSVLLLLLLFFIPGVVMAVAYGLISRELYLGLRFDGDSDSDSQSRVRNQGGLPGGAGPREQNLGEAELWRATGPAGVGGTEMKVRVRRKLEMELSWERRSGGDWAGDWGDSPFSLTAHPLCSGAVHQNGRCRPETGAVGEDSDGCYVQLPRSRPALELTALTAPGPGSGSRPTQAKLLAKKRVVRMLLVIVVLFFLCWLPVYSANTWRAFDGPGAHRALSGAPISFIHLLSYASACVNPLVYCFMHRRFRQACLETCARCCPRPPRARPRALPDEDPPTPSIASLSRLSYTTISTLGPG
Experimental: as §1, §2

## CC(C)(C)C(=O)CN1C(=O)[C@H](NC(=O)Nc2cccc(C(=O)NCCCCCCCC(=O)N[C@H](CCC(=O)O)C(=O)N[C@H](CCC(=O)NC[C@H](O)[C@@H](O)[C@H](O)[C@H](O)CO)C(=O)N[C@H](CCC(=O)O)C(=O)N[C@H](CCC(=O)NC[C@H](O)[C@@H](O)[C@H](O)[C@H](O)CO)C(=O)NC[C@@H]3[NH][99Tc]45[S]C[C@@H](C(=O)O)[N]4C(=O)[C@H](CC(=O)O)[N]5C3=O)c2)CN(C2CCCCC2)c2ccccc21 (some centres unmarked) [CRL-3 ^99mTc]
CCK2R
  Kd: 30 nM
CCK2i4svR
  Kd: 4 nM
